Results taken from patent US10758623B2, “Pharmaceutically active agent complexes, polymer complexes, and compositions and methods involving the same” (Durect Corporation, priority 2013, dated 2020).
Like-named read-outs stand apart in the source and are kept apart here.

How the values were obtained:
Format in all cases: physicochemical
[1] = Stability following exposure to gamma radiation, RPLC purity (Example 30)
Excerpt: The APIs were mixed with the complexable polymers at a ratio of 1:1, 1:4 or 1:10. The instantaneous precipitation was separated from reaction media (ammonium bicarbonate in water) and dried via lyophilization. The dried powder or the dried powder suspended in Benzyl Benzoate were loaded either in glass vial or plastic syringes (Intervene) and packed in aluminum pouches. These samples were exposed to gamma radiation (12.5 kGy-17.5 kGy) for more than 8 hrs at room temperature with radiation indicator sticker (Sterigenics, Corona, Calif.). These gamma irradiated samples were then analyzed for purity using reverse phase liquid chromatography (RPLC) in reference to non-gamma irradiated samples.

[2] = Attempted complexation of risperidone with carboxylate-functionalized 50:50 copolymer (Example 10); details: reaction mixture at pH ~5
Description: Dissolution experiments were conducted as set forth below to determine the in vitro release from a mixture of risperidone and a carboxylate-functionalized 50:50 copolymer prepared as described in Example 2E. […] This observation is mainly due to the limited solubilities of risperidone and the copolymer in the reaction mixture at pH˜5.
1.00 g of a risperidone powder was placed in a 150 mL wide-mouth glass jar. 100 mL of 50 mM NH4COOCH3 solution were added, and the mixture was stirred at 400 rpm for 30 min at room temperature (until it became a visibly clear solution).
100 mL of a 10 mg/mL solution of functionalized polymer were then prepared by stirring 1.00 g of polymer in 100 mL of MilliQ water at 400 rpm (until it became a clear solution).
The pharmaceutically active agent solution was combined with the polymer solution at specific ratios as set forth below and monitored for precipitation. The combined materials were stirred for 30 min and then centrifuged in 50 mL Falcon™ tubes. The supernatant solution was removed for HPLC analysis to determine the quantity of free pharmaceutically active agent (not precipitated). The resultant precipitate was resuspended in 50-100 mL of 50 mM NH4COOCH3 solution and lyophilized according to the method described in Example 3.

[3] = In vitro dissolution of decitabine and azacytidine from amine functionalized copolymer complex (Example 12); details: complex with amine functionalized copolymer (Example 2H); PBS pH 7.4, 37° C.; FIG. 7
Description: 1.00 g of decitabine or azacytidine powder was placed in a 150 mL wide-mouth glass jar. 100 mL of 50 mM NH4HCO3 solution were added, and the mixture was stirred at 400 rpm for 30 min at room temperature (until it became a visibly clear solution).
100 mL of a 10 mg/mL solution of functionalized complexation polymer were then prepared by stirring 1.00 g of polymer in 100 mL of MilliQ water at 400 rpm (until it became a clear solution).
The decitabine or azacytidine solution was combined with the complexation polymer solution at specific ratios as set forth below and monitored for precipitation. The combined materials were stirred for 30 min and then centrifuged in 50 mL Falcon™ tubes. The supernatant solution was removed for HPLC analysis to determine the quantity of free pharmaceutically active agent (not complexed). The resultant precipitate was resuspended in 50-100 mL of 50 mM NH4HCO3 solution and lyophilized according to the method described in Example 3.
Lyophilized complex powder was suspended in 1 mL ammonium bicarbonate (50 mM).
For dissolution or in vitro release testing, PBS (Phosphate buffered saline) pH˜7.4 was used as the medium, and the complexed powder was dispersed into the dissolution medium. […] The amount of decitabine or azacytidine in solution at each time point was determined by HPLC.

HGH: Human Growth Hormone (Biosolutions)
stability after 15 kGy gamma irradiation, non-complexed API [1]: degraded faster

Cc1nc2n(c(=O)c1CCN1CCC(c3noc4cc(F)ccc34)CC1)CCCC2 [risperidone]
complexation outcome with carboxylate-functionalized 50:50 copolymer (Example 2E) [2]: precipitated separately

CCCCCCCCCCCCCCCC(=O)N[C@@H](CCC(=O)NCCCC[C@H](NC(=O)[C@H](C)NC(=O)[C@H](C)NC(=O)[C@H](CCC(N)=O)NC(=O)CNC(=O)[C@H](CCC(=O)O)NC(=O)[C@H](CC(C)C)NC(=O)[C@H](Cc1ccc(O)cc1)NC(=O)[C@H](CO)NC(=O)[C@H](CO)NC(=O)[C@@H](NC(=O)[C@H](CC(=O)O)NC(=O)[C@H](CO)NC(=O)[C@@H](NC(=O)[C@H](Cc1ccccc1)NC(=O)[C@@H](NC(=O)CNC(=O)[C@H](CCC(=O)O)NC(=O)[C@H](C)NC(=O)[C@@H](N)Cc1cnc[nH]1)[C@@H](C)O)[C@@H](C)O)C(C)C)C(=O)N[C@@H](CCC(=O)O)C(=O)N[C@@H](Cc1ccccc1)C(=O)N[C@H](C(=O)N[C@@H](C)C(=O)N[C@@H](Cc1c[nH]c2ccccc12)C(=O)N[C@@H](CC(C)C)C(=O)N[C@H](C(=O)N[C@@H](CCCNC(=N)N)C(=O)NCC(=O)N[C@@H](CCCNC(=N)N)C(=O)NCC(=O)O)C(C)C)[C@@H](C)CC)C(=O)O [Liraglutide]
stability after 15 kGy gamma irradiation, non-complexed API ([1]; RPLC, relative to the complexed APIs, with a corresponding reduction in potency): degraded faster

Nc1ncn([C@@H]2O[C@H](CO)[C@@H](O)[C@H]2O)c(=O)n1 [azacytidine]
stability under the tested dissolution conditions [3]: significantly degraded
